Reference: publication PMC10925993, “6-Aryl-4-cycloamino-1,3,5-triazine-2-amines: synthesis, antileukemic activity, and 3D-QSAR modelling” (RSC Advances, 2024)
Read-outs that look alike come from different tables or passages of the source.

Tests used:
Jurkat T cells [1] = experiment: Antiproliferative screening at 10 μM, MTS assay; format: cell-based, human; settings: for viability at 10 µM: Homo sapiens, Jurkat T cells, 72 h after treatment, MTS, mean of three independent experiments, read-out: Cell viability (%); for Antiproliferative activity against Jurkat T cells (in words): screening concentration 10 μM, 72 h
Experimental: The Jurkat T cell line was chosen for its reliability as a model for chemotherapeutic studies, particularly in T-cell leukemia.[13]
An MTS (3-(4,5-dimethylthiazol-2-yl)-5-(3-carboxymethoxyphenyl)-2-(4-sulfophenyl)-2H-tetrazolium inner salt) assay[20] was used to assess the leukemic cell viability. […] A total of 2 × 10^3 cells per 100 μL cell culture media were seeded into each well of a 96-well plate and incubated for 24 h. Then, tested compounds or reference drugs [6-mercaptopurine (Merck Millipore, Germany), methotrexate (Merck Millipore, Germany) and cytarabine (Merck Millipore, Germany)] were added, followed by incubation for 72 h. […] The absorbance in each well was measured at 490 nm using a microplate reader (Tecan NanoQuant Infinite M200 Pro, Austria). The percentage of cell viability was estimated by comparing absorbance in wells with the treated and untreated (vehicle control) cells using the following formula: ODtreated/ODuntreated × 100%. All experiments were performed in triplicate and repeated in three independent experiments. The GI50 values were calculated using sigmoidal concentration-response curves generated by the GraphPad Prism 8 program.[21]

Jurkat T cells [2] = experiment: Inhibition of Jurkat T cell growth (GI50), MTS assay; format: cell-based; settings: Homo sapiens
Experimental: These compounds were selected for further testing to estimate their 50% growth inhibition (GI50) value. Standard antileukemic drugs mercaptopurine, methotrexate and cytarabine were chosen as positive controls.
An MTS (3-(4,5-dimethylthiazol-2-yl)-5-(3-carboxymethoxyphenyl)-2-(4-sulfophenyl)-2H-tetrazolium inner salt) assay[20] was used to assess the leukemic cell viability. Jurkat T cells (human leukemic T cell, clone E6-1) from American Type Culture Collection (ATCC) were cultured in RPMI-1640 medium (Nacalai Tesque, Japan) supplemented with 10% v/v fetal bovine serum (FBS) (Biosera, France). The cells were maintained at 37 °C in a humidified 5% CO2 incubator (Thermo Fisher, USA). A total of 2 × 10^3 cells per 100 μL cell culture media were seeded into each well of a 96-well plate and incubated for 24 h. Then, tested compounds or reference drugs [6-mercaptopurine (Merck Millipore, Germany), methotrexate (Merck Millipore, Germany) and cytarabine (Merck Millipore, Germany)] were added, followed by incubation for 72 h. After that, a mixture of MTS (Sigma Aldrich, USA) and phenazine methosulfate (PMS) (Nacalai Tesque, Japan) were added to each well, followed by another incubation for 1 h to 4 h at 37 °C. The absorbance in each well was measured at 490 nm using a microplate reader (Tecan NanoQuant Infinite M200 Pro, Austria). The percentage of cell viability was estimated by comparing absorbance in wells with the treated and untreated (vehicle control) cells using the following formula: ODtreated/ODuntreated × 100%. All experiments were performed in triplicate and repeated in three independent experiments. The GI50 values were calculated using sigmoidal concentration-response curves generated by the GraphPad Prism 8 program.[21]

[3] = GI50 against Jurkat T cells converted to negative logarithmic scale, read-out: Experimental pGI50 (converted)
[4] = concentration required to inhibit Jurkat T cell growth by 50%, 72 h, MTS, mean of three independent experiments, read-out: GI50 ± SEM

| GI50 (Jurkat T cells [2]; [3]) [µM] | GI50 (Jurkat T cells [2]; [4]) [µM] | melting point [°C] | SMILES | viability at 10 µM (Jurkat T cells [1]) [%] | Antiproliferative activity against Jurkat T cells (in words) (Jurkat T cells [1]) |
| --- | --- | --- | --- | --- | --- |
| 1.15 | 1.14 ± 0.13 | 145 to 146 | Cc1cccc(-c2nc(N)nc(N3CCc4ccccc4C3)n2)c1 [9{6,5}, 6-(3-Methylphenyl)-4-(3,4-dihydroisoquinolin-2(1H)-yl)-1,3,5-triazine-2-amine] | 2 |  |
| 6.76 | 6.73 ± 0.43 | 199 to 200 | COc1cc(-c2nc(N)nc(N3CCc4ccccc43)n2)cc(OC)c1OC [9{7,17}, 6-(3,4,5-Trimethoxyphenyl)-4-(indolin-1-yl)-1,3,5-triazine-2-amine] | 10 |  |
|  | 0.29 ± 0.01 |  | Nc1ccn([C@@H]2O[C@H](CO)[C@@H](O)[C@@H]2O)c(=O)n1 [Cytarabine, cytarabine, reference compound] |  |  |
| 7.76 | 7.68 ± 0.11 | 157 to 158 | Nc1nc(-c2cccc(OCc3ccccc3)c2)nc(N2CCCCC2)n1 [9{2,14}, 6-[3-(Benzyloxy)phenyl]-4-piperidino-1,3,5-triazine-2-amine] | 8 | effectively inhibited Jurkat T cell growth |
| 11.7 | 11.6 ± 2.12 | 159 to 160 | COc1ccc(-c2nc(N)nc(N3CCc4ccccc4C3)n2)cc1OC [9{6,16}, 6-(3,4-Dimethoxyphenyl)-4-(3,4-dihydroisoquinolin-2(1H)-yl)-1,3,5-triazin-2-amine] | 23 |  |
| 6.03 | 6.03 ± 0.64 | 163 to 164 | Nc1nc(-c2cccs2)nc(N2CCc3ccccc32)n1 [9{7,18}, 4-(Indolin-1-yl)-6-(2-thienyl)-1,3,5-triazine-2-amine] | 20 |  |
| 2.45 | 2.43 ± 0.57 | 162 to 164 | CC(C)(C)c1ccc(-c2nc(N)nc(N3CCc4ccccc4C3)n2)cc1 [9{6,7}, 6-[4-(tert-Butyl)phenyl]-4-(3,4-dihydroisoquinolin-2(1H)-yl)-1,3,5-triazine-2-amine] | 1 |  |
| 4.47 | 4.51 ± 0.15 | 170 to 171 | CC1CCN(c2nc(N)nc(-c3ccc(C(F)(F)F)cc3)n2)CC1 [9{3,11}, 6-[4-(Trifluoromethyl)phenyl]-4-(4-methylpiperidino)-1,3,5-triazine-2-amine] | 11 | effectively inhibited Jurkat T cell growth |
| 28.2 | 28.2 ± 1.03 | 155 to 156 | CC1CCN(c2nc(N)nc(-c3cccs3)n2)CC1 [9{3,18}, 4-(4-Methylpiperidino)-6-(2-thienyl)-1,3,5-triazine-2-amine] | 35 |  |
|  |  | > 300 | Cc1ccc(-c2nc(N)nc(N3CCC(C)CC3)n2)cc1 [9{3,6}, 6-(4-Methylphenyl)-4-(4-methylpiperidino)-1,3,5-triazine-2-amine] | 100 |  |
|  |  | 149 to 150 | Nc1nc(-c2ccc(OC(F)(F)F)cc2)nc(N2CCCC2)n1 [9{1,12}, 6-[4-(Trifluoromethoxy)phenyl]-4-pyrrolidino-1,3,5-triazine-2-amine] | 96 |  |
|  |  | 170 to 171 | Nc1nc(-c2cccc(Oc3ccccc3)c2)nc(N2CCCC2)n1 [9{1,13}, 6-(3-Phenoxyphenyl)-4-pyrrolidino-1,3,5-triazine-2-amine] | 87 |  |
|  |  | 125 to 126 | CC1CCN(c2nc(N)nc(-c3cccc(F)c3)n2)CC1 [9{3,2}, 6-(3-Fluorophenyl)-4-(4-methylpiperidino)-1,3,5-triazine-2-amine] | 61 |  |
|  |  | 138 to 139 | Nc1nc(-c2cccc(F)c2)nc(N2CCCCC2)n1 [9{2,2}, 6-(3-Fluorophenyl)-4-piperidino-1,3,5-triazine-2-amine] | 62 |  |
| 21.9 | 21.8 ± 1.1 |  | CN1CCN(c2nc(N)nc(-c3ccc(C(C)(C)C)cc3)n2)CC1 [9{4,7}, 6-[4-(tert-Butyl)phenyl]-4-(4-methylpiperazino)-1,3,5-triazine-2-amine] | 16 | effectively inhibited Jurkat T cell growth |
|  | 11.1 ± 4.89 |  | S=c1[nH]cnc2nc[nH]c12 [Mercaptopurine, mercaptopurine, reference compound] |  |  |

| GI50 (Jurkat T cells [2]; [3]) [µM] | GI50 (Jurkat T cells [2]; [4]) [µM] | melting point [°C] | SMILES | viability at 10 µM (Jurkat T cells [1]) [%] | Antiproliferative activity against Jurkat T cells (in words) (Jurkat T cells [1]) |
| --- | --- | --- | --- | --- | --- |
|  |  | 195 to 196 | Nc1nc(-c2ccc(OC(F)(F)F)cc2)nc(N2CCc3ccccc32)n1 [9{7,12}, 6-[4-(Trifluoromethoxy)phenyl]-4-(indolin-1-yl)-1,3,5-triazine-2-amine] | 73 |  |
|  |  | 170 to 171 | Nc1nc(-c2cccs2)nc(N2CCc3ccccc3C2)n1 [9{6,18}, 4-(3,4-Dihydroisoquinolin-2(1H)-yl)-6-(2-thienyl)-1,3,5-triazine-2-amine] | 78 | inactive against Jurkat T cells |
|  |  | 194 to 195 | CN1CCN(c2nc(N)nc(-c3ccc(OC(F)(F)F)cc3)n2)CC1 [9{4,12}, 6-[4-(Trifluoromethoxy)phenyl]-4-(4-methylpiperazino)-1,3,5-triazine-2-amine] | 100 |  |
|  |  | 196 to 197 | CC(C)(C)c1ccc(-c2nc(N)nc(N3CCCC3)n2)cc1 [9{1,7}, 6-[4-(tert-Butyl)phenyl]-4-pyrrolidino-1,3,5-triazine-2-amine] | 88 |  |
|  |  | 117 to 118 | CN1CCN(c2nc(N)nc(-c3cccc(OCc4ccccc4)c3)n2)CC1 [9{4,14}, 6-[3-(Benzyloxy)phenyl]-4-(4-methylpiperazino)-1,3,5-triazine-2-amine] | 73 |  |
|  |  | 213 to 214 | COc1cc(-c2nc(N)nc(N3CCCC3)n2)cc(OC)c1OC [9{1,17}, 6-(3,4,5-Trimethoxyphenyl)-4-pyrrolidino-1,3,5-triazine-2-amine] | 98 |  |
|  |  | 229 to 230 | Cc1ccc(-c2nc(N)nc(N3CCCC3)n2)cc1 [9{1,6}, 6-(4-Methylphenyl)-4-pyrrolidino-1,3,5-triazine-2-amine] | 100 |  |
|  |  | 223 to 224 | COc1ccc(-c2nc(N)nc(N3CCN(C)CC3)n2)cc1OC [9{4,16}, 6-(3,4-Dimethoxyphenyl)-4-(4-methylpiperazino)-1,3,5-triazine-2-amine] | 100 |  |
|  |  | 201 to 202 | Nc1nc(-c2ccc(OCc3ccccc3)cc2)nc(N2CCCC2)n1 [9{1,15}, 6-[4-(Benzyloxy)phenyl]-4-pyrrolidino-1,3,5-triazine-2-amine] | 94 |  |
| 1.95 | 1.95 ± 0.25 |  | Nc1nc(-c2ccccc2)nc(N2CCc3ccccc3C2)n1 [9{6,1}] | 12 |  |
|  |  | 219 to 220 | COc1ccc(-c2nc(N)nc(N3CCc4ccccc43)n2)cc1 [9{7,9}, 6-(4-Methoxyphenyl)-4-(indolin-1-yl)-1,3,5-triazine-2-amine] | 85 |  |
|  |  | 168 to 169 | CC1CCN(c2nc(N)nc(-c3ccc(Cl)cc3)n2)CC1 [9{3,4}, 6-(4-Chlorophenyl)-4-(4-methylpiperidino)-1,3,5-triazine-2-amine] | 79 |  |
|  |  | > 300 | CC1CCN(c2nc(N)nc(-c3ccc(F)cc3)n2)CC1 [9{3,3}, 6-(4-Fluorophenyl)-4-(4-methylpiperidino)-1,3,5-triazine-2-amine] | 86 |  |
|  |  | 198 to 199 | COc1cc(-c2nc(N)nc(N3CCc4ccccc4C3)n2)cc(OC)c1OC [9{6,17}, 6-(3,4,5-Trimethoxyphenyl)-4-(3,4-dihydroisoquinolin-2(1H)-yl)-1,3,5-triazine-2-amine] | 96 |  |
|  |  | 185 to 186 | Cc1cccc(-c2nc(N)nc(N3CCCC3)n2)c1 [9{1,5}, 6-(3-Methylphenyl)-4-pyrrolidino-1,3,5-triazine-2-amine] | 82 |  |
